Values quoted from earlier work as cited in patent publication US20100129431A1, “IDEBENONE COMPOSITION FOR THE TREATMENT OF NEUROLOGICAL DISORDERS” (AlphaRx Inc., priority 2008, published 2010).

How the values were obtained:
[1] = tested on: Friedreich's Ataxia patients
free radical species = details: cell cultures
[2] = tested on: cultured cortical neurons; details: also when applied 30 minutes after the NMDA pulse
[3] = oral
[4] = tested on: microsomal lipid peroxidation; details: induced by ADP-iron complexes or organic hydroperoxides
rats = details: cerebral embolization, cerebral ischemia or basal forebrain lesions
[5] = tested on: patients with cerebrovascular disease; details: 90 mg daily, nine patients
[6] = clinical tests

For `COC1=C(OC)C(=O)C(CCCCCCCCCCO)=C(C)C1=O` [Idebenone, 2,3-dimethoxy-5-methyl-6-(10-hydroxydecyl)-1,4-benzoquinone], the left ventricular enlargement ([1]; 5 mg/kg daily for 4-9 months, three patients) is listed as “reduction of left ventricular enlargement”, the “marker of oxidative DNA damage” value ([1]; oral 5 mg/kg daily for 8 weeks) is listed as “significantly decreased” and the free radical scavenging (free radical species) is listed as “scavenged a variety of free radical species”. For the same molecule, the “protection against necrotic degeneration” value [2] was “protects cultured cortical neurons against necrotic degeneration”, the bioavailability [3] was “relatively, high” and the water solubility was “low”. For the same molecule, the microsomal lipid peroxidation [4] was “inhibit microsomal lipid peroxidation”, the “learning and memory disturbances” value (rats) was “ameliorates learning and memory disturbances” and the “EEG and clinical symptoms” value [5] was “improvements in EEG and clinical symptoms”. For the same molecule, the “psychological deficits (memory retention, disorientation)” value [6] was “effective in reducing psychological deficits”.
